The results in this text go back to ChEMBL document CHEMBL3046476, “Qsar for Acetylcholinesterase and Butyrylcholinesterase Inhibition by Cardiovascular Drugs and Benzodiazepines” (Med Chem Res, 2005).

For test [1], the target named is Cholinesterase (Equus caballus) (UniProt P81908). The test is described as follows: Reversible mixed-type inhibition of Equus caballus (horse) serum butyrylcholinesterase (BChE) assessed as inhibition of BTCh hydrolysis by Ellman method. For orientation: In Ellman's method for cholinesterases, released thiocholine reacts with DTNB.
The target in the next test is Acetylcholinesterase (Electrophorus electricus, UniProt O42275). Kind of test: Inhibition of Electrophorus electricus (electric eel) acetylcholinesterase (AChE) assessed as inhibition of ATCh hydrolysis by Ellman method.
Another test addresses Cholinesterase (Equus caballus, UniProt P81908). Kind of test: Inhibition of Equus caballus (horse) serum butyrylcholinesterase (BChE) assessed as inhibition of BTCh hydrolysis by Ellman method.

Structures can show the parent of a compound that is named as a salt. Active and inactive are the calls of the source. The calls are words filed in the database; no cut-off is given here.

Sequence of Acetylcholinesterase (O42275 whole entry): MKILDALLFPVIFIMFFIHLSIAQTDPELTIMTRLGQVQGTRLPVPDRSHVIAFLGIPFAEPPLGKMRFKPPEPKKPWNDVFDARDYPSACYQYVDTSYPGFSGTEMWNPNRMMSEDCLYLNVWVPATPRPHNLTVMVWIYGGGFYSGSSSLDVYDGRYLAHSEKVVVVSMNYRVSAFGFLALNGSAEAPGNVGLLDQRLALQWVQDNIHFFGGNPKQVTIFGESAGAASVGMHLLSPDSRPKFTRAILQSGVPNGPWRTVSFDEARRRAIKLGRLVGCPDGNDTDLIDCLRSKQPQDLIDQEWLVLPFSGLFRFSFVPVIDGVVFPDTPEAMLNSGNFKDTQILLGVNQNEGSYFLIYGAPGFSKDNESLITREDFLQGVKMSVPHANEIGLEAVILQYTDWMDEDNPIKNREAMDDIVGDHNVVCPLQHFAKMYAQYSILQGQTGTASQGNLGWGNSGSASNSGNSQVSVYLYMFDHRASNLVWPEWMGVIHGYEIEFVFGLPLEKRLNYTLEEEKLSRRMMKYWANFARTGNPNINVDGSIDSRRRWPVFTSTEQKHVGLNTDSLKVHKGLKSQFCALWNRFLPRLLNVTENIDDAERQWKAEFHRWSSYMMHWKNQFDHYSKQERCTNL
Sequence of Cholinesterase (P81908 whole entry): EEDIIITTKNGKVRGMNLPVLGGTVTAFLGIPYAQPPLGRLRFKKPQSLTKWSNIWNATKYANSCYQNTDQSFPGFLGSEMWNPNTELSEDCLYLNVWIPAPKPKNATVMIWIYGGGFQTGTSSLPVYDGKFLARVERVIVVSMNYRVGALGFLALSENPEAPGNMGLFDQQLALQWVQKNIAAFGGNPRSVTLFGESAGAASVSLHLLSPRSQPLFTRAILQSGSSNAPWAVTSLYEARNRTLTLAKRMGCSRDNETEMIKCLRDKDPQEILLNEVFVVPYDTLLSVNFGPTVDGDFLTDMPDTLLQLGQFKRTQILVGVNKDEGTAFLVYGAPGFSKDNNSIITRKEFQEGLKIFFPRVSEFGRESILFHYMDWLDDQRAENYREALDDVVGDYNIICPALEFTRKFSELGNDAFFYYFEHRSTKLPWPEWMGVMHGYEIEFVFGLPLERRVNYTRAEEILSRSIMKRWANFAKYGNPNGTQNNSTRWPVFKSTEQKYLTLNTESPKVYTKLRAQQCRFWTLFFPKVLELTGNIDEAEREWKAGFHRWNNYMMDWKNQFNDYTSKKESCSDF
Sequence of Cholinesterase (Equus caballus) (P81908 whole entry): as above

For the compound `CCOC(=O)C1=C(COCCN)NC(C)=C(C(=O)OC)C1c1ccccc1Cl` (centres undefined), in test [1], the inhibition entry is “Active”.

`CNC1=Nc2ccc(Cl)cc2C(c2ccccc2)=[N+]([O-])C1`: in test [1], the inhibition entry was “Active”.

For `CN1C(=O)CN=C(c2ccccc2)c2cc(Cl)ccc21` [DIAZEPAM], the inhibition entry in test [1] was “Active”. Moreover, the Ki was 13 µM on Acetylcholinesterase (read-out: Ki) and 251 µM at Acetylcholinesterase (read-out: pKi (converted)).

With `NNc1nncc2ccccc12` [HYDRALAZINE HYDROCHLORIDE], the inhibition entry in test [1] was “Active”. Besides, the Ki on Acetylcholinesterase (read-out: Ki) was 7 µM; at Acetylcholinesterase (read-out: pKi (converted)), 251 µM; on Cholinesterase (read-out: Ki) it was 1.9 µM; on Cholinesterase (read-out: pKi (converted)), 5.01 µM.

`CC[C@H](C)C(=O)O[C@H]1C[C@@H](C)C=C2C=C[C@H](C)[C@H](CC[C@@H]3C[C@@H](O)CC(=O)O3)[C@H]21` [LOVASTATIN]: the inhibition entry in test [1] is “Active”. In addition, the Ki on Acetylcholinesterase (read-out: Ki) is 2.7 µM; on Acetylcholinesterase (read-out: pKi (converted)), 251 µM; on Cholinesterase (read-out: Ki) it was 1.1 µM; on Cholinesterase (read-out: pKi (converted)), 5.01 µM.

Regarding `COC(=O)C1=C(C)NC(C)=C(C(=O)OC)C1c1ccccc1[N+](=O)[O-]` [NIFEDIPINE], the inhibition result in test [1] was “Active”. Besides, the Ki at Acetylcholinesterase (read-out: Ki) is 4 µM; on Acetylcholinesterase (read-out: pKi (converted)), 251 µM; on Cholinesterase (read-out: Ki) it was 1.2 µM; on Cholinesterase (read-out: pKi (converted)), 5.01 µM.

For `CCC(C)(C)C(=O)O[C@H]1C[C@@H](C)C=C2C=C[C@H](C)[C@H](CC[C@@H]3C[C@@H](O)CC(=O)O3)[C@H]21` [SIMVASTATIN], the Ki on Acetylcholinesterase (read-out: Ki) is 1.8 µM; at Acetylcholinesterase (read-out: pKi (converted)), 251 µM; at Cholinesterase (read-out: Ki) it was 0.75 µM; at Cholinesterase (read-out: pKi (converted)), 5.01 µM.
